Measurements: patent US4007201A, “Novel pyrazole derivatives” (Kyorin Pharmaceutical Co. Ltd., priority 1975, dated 1977)

Legend:
Assay type in all cases: in vivo, male Sprague Dawley rats
[1] = tested on: blood glucose level in fasted and glucose-loaded rats; assay: Relationships between doses and reducing activity of the compound 4; settings: for Blood glucose: ± SE
Experimental: (§1) The animals used for the pharmacological studies were male Sprague Dawley rats exept otherwise noted. 1. Hypoglycemic activity in non-diabetic rats (screening test)
The rats were fasted for 16 - 18 hours prior to the experiment and those weighing 140 - 160g were used. Glucose solution (100 mg/0.5ml/150g body weight) was subcutaneously injected on the fasted rats. Each of the present compounds was suspended in 1% carboxymethyl cellulose (CMC), and about 0.5 ml of the suspension (corresponding to 100 mg/kg of the compound per body weight) was orally administered. Blood samples were taken from the tail vein of the rats at 2 and 5 hours after the administration, and the blood glucose level in each sample (0.1 ml) was determined by the micro method of Momose as described in SOGO-RINSHO 11, 120 (1962).
The compound 4 and tolbutamide were orally administered to the fasted and glucose-loaded rats in various doses.

[2] = tested on: blood glucose level in alloxan diabetic rats; assay: Hypoglycemic effect in alloxan diabetic rats; settings: for Hypoglycemic effect in alloxan diabetic rats (in words): oral
Experimental: (§2) These new compounds of the present invention are very useful as anti-diabetic agents, which is supported from the following pharmacological studies. The animals used for the pharmacological studies were male Sprague Dawley rats exept otherwise noted. 1. Hypoglycemic activity in non-diabetic rats (screening test)
(§3) Alloxan diabetic rats were obtained as follows. Namely, 2.5% fresh solution of alloxan (50mg/kg) was injected into the tail vein of male rats, and the rats were daily injected with insulin (1-4 units/day) from the 7th day after the administration of alloxan. The alloxan diabetic rats which were survived for more than 2 months with daily injection of insulin were used. The alloxan diabetic rats were fasted for 24 hours after the last treatment with insulin, and then the compound of the present invention was orally administered. The blood glucose levels were determined by the micro method of Momose before and 2, 4 and 6 hours after the administration.

[3] = tested on: blood glucose level in adrenalectomized rats; assay: Hypoglycemic effect in adrenalectomized rats; settings: for Reduction % from control / Blood glucose: 2 hours; for Blood glucose: ± SE
Source text: as §2
The rats were adrenalectomized (both left and right adrenal glands) and were bred for 6-7 days by using 1% saline solution as for drinking water. The adrenalectomized rats were then fasted for 16-18 hours prior to the experiment. Glucose loading (100 mg/150g body weight) was performed by a subcutaneous administration of glucose solution on the back of the rats. Immediately after the glucose loading, the compound 4 suspended in 1% CMC was orally administered. Two hours after the oral administration, blood was obtained from the vena cava candalis of the rats under anesthesia with sodium pentobarbital. Blood glucose level was determined by the method of Momose.

[4] = tested on: blood glucose level in non-diabetic rats; assay: Blood glucose level in non-diabetic rats at 90 minutes; settings: 100 mg/kg oral
Experimental: as §2
The rats were fasted for 16-18 hours, and those weighing 130-160g were used. The compound 4 suspended in 1% CMC was orally administered to the fasted rats, and at 90 minutes after administration blood was drawn from the […] vena cava under anesthesia with sodium pentobarbital. The blood glucose level was determined by the method of Momose, and the serum FFA level was determined by the method of Itaya and Ui as described in J. Lipid Res., 6, 16 (1965), respectively.

[5] = tested on: serum FFA level in fasted rats; assay: Time course of the serum FFA level in fasted rats (FIG. 1); settings: 50 mg/kg oral; 0.5, 1, 2, 4 and 6 hours
Experimental: as §2
Further experiment was performed to clarify the effectiveness of the compound 4 on the serum FFA. Blood samples were taken at 0.5, 1, 2, 4 and 6 hours after an oral administration of 50 mg/kg to the fasted rats and the serum FFA levels were determined.

[6] = tested on: serum FFA level in non-diabetic rats; assay: Serum FFA level in non-diabetic rats, oral administration for 10 days
Experimental: as §2
The compound suspended in 1% CMC was orally administered once a day for 10 days to healthy rats weighing 140-160g. The rats were fasted for 16-18 hours prior to the last administration. Blood samples were taken at 90 minutes after the last administration, and the blood glucose and serum FFA levels were determined, respectively.

[7] = tested on: serum FFA level in alloxan diabetic rats; assay: Serum FFA level in alloxan diabetic rats, oral administration; settings: compound 4 at 12.5 and 100 mg/kg, 1.5 and 5 hours
Experimental: as §2, §3
The alloxan diabetic rats which were prepared and then preserved for 6 months with insulin as described in the previous experiment were used.

[8] = tested on: blood glucose level in alloxan diabetic rats; assay: Blood glucose level in alloxan diabetic rats loaded with much quantity of glucose
Experimental: as §2
Respective dose of the compound 4 (12.5 and 100 mg/kg) together with 2g/kg of glucose was orally administered to the alloxan diabetic rats.

[9] = tested on: blood glucose level in streptozotocin-diabetic rats; assay: Hypoglycemic effect in streptozotocin-diabetic rats; settings: for Blood glucose level Before: before (baseline); for Hypoglycemic effect in streptozotocin-diabetic rats (in words): oral
Experimental: The animals used for the pharmacological studies were male Sprague Dawley rats exept otherwise noted. 1. […]
The rats were fasted for 16 hours, and then streptozotocin was intravenously injected in a dose of 65 mg/kg. Oral administration of the compound 4 was performed at 48 hours after the injection of streptozotocin. Blood samples were taken at 4 hours after the oral administration, and the blood glucose level in each sample was determined.

[10] = tested on: liver glycogen level in rats loaded with glucose; assay: Liver glycogen level in rats loaded with glucose; settings: oral in 40% glucose solution; 3 hours
Experimental: as §1
The rats were fasted for 16 - 18 hours, and then the compound 4 suspended in 40% glucose solution was orally administered (5 ml/kg of the suspension per body weight). Glycogen content in the liver was determined at 3 hours after the administration.

[11] = Rattus norvegicus, 100 mg/kg oral, 4 hours

For `CCCCNC(=O)NS(=O)(=O)c1ccc(C)cc1` [Tolbutamide, reference compound], the “Reduction % from control” value ([1]; 6.75 mg/kg oral) was 3.8%, the Blood glucose ([1]; 6.75 mg/kg oral) was 87.6 ± 6.5 mg% and the “Reduction % from control” value ([1]; 12.5 mg/kg oral) was -1.4%. The Blood glucose ([1]; 12.5 mg/kg oral) was 92.4 ± 3.5 mg%, the “Reduction % from control” value ([1]; 25 mg/kg oral) was 19.3% and the Blood glucose ([1]; 25 mg/kg oral) was 73.5 ± 5.0 mg%. The “Reduction % from control” value ([1]; 50 mg/kg oral) was 48.0%, the Blood glucose ([1]; 50 mg/kg oral) was 47.4 ± 3.4 mg% and the “Potency at low doses (in words)” value ([1]; low doses, oral) was “not potent at low doses”. The “Hypoglycemic effect in alloxan diabetic rats (in words)” value [2] was “could not exert its hypoglycemic effect in the alloxan diabetic rats”, the “Reduction % from control” value ([3]; 15 mg/kg oral) was 42.0% and the Blood glucose ([3]; 15 mg/kg oral) was 45.7 ± 7.3 mg %. For the same compound, the “Reduction % from control” value ([3]; 30 mg/kg oral) was 79.2%, the Blood glucose ([3]; 30 mg/kg oral) was 16.4 ± 2.1 mg % and the “Reduction % from control” value ([3]; 60 mg/kg oral) was 87.9%. For the same compound, the Blood glucose ([3]; 60 mg/kg oral) was 9.5 ± 0.6 mg %, the Blood glucose level [4] was 57.7 ± 12.1 mg/dL and the “Effect on blood glucose level (in words)” value [4] was “significantly lowered the blood glucose level”. For the same compound, the “Effect on serum FFA level (in words, FIG. 1)” value [5] was “only a slight suppression”, the “Serum FFA levels” value ([6]; 50.0 mg/kg oral once a day) was 45.1 ± 2.7 μ Eq/dl and the “Effect on serum FFA level in alloxan diabetic rats (in words)” value [7] was “no suppressive effect on the serum FFA level”. For the same compound, the “Hypoglycemic effect (in words)” value ([8]; alloxan diabetic rats, dose not stated) was “no hypoglycemic effect”, the “Blood glucose level Before” value ([9]; 100 mg/kg oral group) was 413.9 ± 10.2 mg % and the “Blood glucose level 4 hours” value ([9]; 100 mg/kg oral, 4 hours) was 327.8 ± 11.3 mg %. The inhibition at 100 mg/kg [9, 11] was 79.4 ± 2.7%, the “Hypoglycemic effect in streptozotocin-diabetic rats (in words)” value ([9]; 4 hours) was “did not have a potent hypoglycemic activity” and the “Effect on the liver glycogen level” value [10] was “neither tolbutamide or pnenformin exerted such effect”.

With `Cc1cc(C)n(C(=O)CNS(=O)(=O)c2ccc(Cl)cc2)n1` [Example 4, 1-(N-p-chlorobenzenesulfonyl-glycyl)-3,5-dimethylpyrazole] the “Reduction % from control” value ([1]; 0.56 mg/kg oral) was 14.9%, the Blood glucose ([1]; 0.56 mg/kg oral) was 77.5 ± 6.6 mg% and the “Reduction % from control” value ([1]; 1.14 mg/kg oral) was 19.4%. For the same compound, the “Reduction of the blood glucose level (in words)” value ([1]; 1.14 mg/kg oral) was “significantly reduced the blood glucose level even at the dose of 1.14 mg/kg”, the Blood glucose ([1]; 1.14 mg/kg oral) was 73.4 ± 6.4 mg% and the “Reduction % from control” value ([1]; 3.38 mg/kg oral) was 20.6%. For the same compound, the Blood glucose ([1]; 3.38 mg/kg oral) was 72.3 ± 4.1 mg%, the “Reduction % from control” value ([1]; 6.75 mg/kg oral) was 24.0% and the Blood glucose ([1]; 6.75 mg/kg oral) was 69.2 ± 7.8 mg%. The “Reduction % from control” value ([1]; 12.5 mg/kg oral) was 34.8%, the Blood glucose ([1]; 12.5 mg/kg oral) was 59.4 ± 4.0 mg% and the “Reduction % from control” value ([1]; 25 mg/kg oral) was 45.4%. The Blood glucose ([1]; 25 mg/kg oral) was 49.7 ± 2.8 mg%, the “Reduction % from control” value ([1]; 50 mg/kg oral) was 40.5% and the Blood glucose ([1]; 50 mg/kg oral) was 54.2 ± 2.9 mg%. The “Blood glucose before administration” value ([2]; 100 mg/kg oral group, before administration (baseline), ± SE) was 352.1 ± 31.6 mg%, the “Blood glucose 2 hours” value ([2]; 100 mg/kg oral, 2 hours, ± SE) was 267.6 ± 34.3 mg% and the “Blood glucose 4 hours” value ([2]; 100 mg/kg oral, 4 hours, ± SE) was 172.4 ± 35.1 mg%. For the same compound, the “Blood glucose 6 hours” value ([2]; 100 mg/kg oral, 6 hours, ± SE) was 97.8 ± 13.4 mg%, the “Hypoglycemic effect in alloxan diabetic rats (in words)” value [2] was “could be observed, and it lasted so longer than that of phenformin (phenethylbiguanide) as to be potent even at 6 hours after the administration” and the “Reduction of the blood glucose level (in words)” value ([3]; 0.125 mg/kg oral) was “significantly reduced the blood glucose level even at low dose of 0.125 mg/kg”. For the same compound, the “Reduction % from control” value ([3]; 0.125 mg/kg oral) was 51.9%, the Blood glucose ([3]; 0.125 mg/kg oral) was 37.9 ± 5.5 mg % and the “Reduction % from control” value ([3]; 0.25 mg/kg oral) was 70.4%. The Blood glucose ([3]; 0.25 mg/kg oral) was 23.3 ± 4.0 mg %, the “Reduction % from control” value ([3]; 0.50 mg/kg oral) was 77.5% and the Blood glucose ([3]; 0.50 mg/kg oral) was 17.8 ± 3.6 mg %. The “Reduction % from control” value ([3]; 1.0 mg/kg oral) was 83.6%, the Blood glucose ([3]; 1.0 mg/kg oral) was 12.9 ± 1.4 mg % and the “Reduction % from control” value ([3]; 2.0 mg/kg oral) was 81.6%. For the same compound, the Blood glucose ([3]; 2.0 mg/kg oral) was 14.5 ± 3.2 mg %, the “Reduction % from control” value ([3]; 4.0 mg/kg oral) was 81.6% and the Blood glucose ([3]; 4.0 mg/kg oral) was 14.6 ± 2.9 mg %. For the same compound, the Blood glucose level [4] was 66.5 ± 6.0 mg/dL, the “Effect on blood glucose level (in words)” value [4] was “significantly lowered the blood glucose level” and the “Effect on serum FFA level (in words, FIG. 1)” value [5] was “markedly lowered the FFA level, and this effect could be observed at 6 hours after”. The “Serum FFA levels” value ([6]; 0.8 mg/kg oral once a day) was 46.8 ± 5.1 μ Eq/dl, the “Effect on serum FFA level (in words)” value ([6]; 0.8 mg/kg/day oral) was “significantly lowered the serum FFA level even at a low dose (0.8mg/kg/day)” and the “Serum FFA levels” value ([6]; 3.1 mg/kg oral once a day) was 35.9 ± 2.9 μ Eq/dl. The “Serum FFA levels” value ([6]; 12.5 mg/kg oral once a day) was 27.1 ± 1.5 μ Eq/dl, the “Serum FFA levels” value ([6]; 50.0 mg/kg oral once a day) was 27.9 ± 1.5 μ Eq/dl and the “Effect on serum FFA level in alloxan diabetic rats (in words)” value [7] was “drastically decreased within 1.5 hours, and it was still more lowered even at 5 hours later”. For the same compound, the “Effect on blood glucose level (in words)” value ([8]; 12.5 and 100 mg/kg oral with 2g/kg of glucose, 3 hours) was “significantly lowered at 3 hours after the administration (p<0.005)”, the “Blood glucose level Before” value ([9]; 6.25 mg/kg oral group) was 425.3 ± 10.5 mg % and the “Blood glucose level 4 hours” value ([9]; 6.25 mg/kg oral, 4 hours) was 263.2 ± 26.6 mg %. For the same compound, the “Blood glucose level Before” value ([9]; 25 mg/kg oral group) was 415.8 ± 12.2 mg %, the “Blood glucose level 4 hours” value ([9]; 25 mg/kg oral, 4 hours) was 251.2 ± 21.8 mg % and the “Blood glucose level Before” value ([9]; 100 mg/kg oral group) was 411.5 ± 16.9 mg %. For the same compound, the “Blood glucose level 4 hours” value ([9]; 100 mg/kg oral, 4 hours) was 231.4 ± 33.3 mg %, the inhibition at 6.25 mg/kg ([9]; Rattus norvegicus, 6.25 mg/kg oral, 4 hours) was 61.9 ± 6.2% and the inhibition at 25 mg/kg ([9]; Rattus norvegicus, 25 mg/kg oral, 4 hours) was 59.8 ± 3.8%. For the same compound, the inhibition at 100 mg/kg [9, 11] was 54.3 ± 6.4%, the “Hypoglycemic effect in streptozotocin-diabetic rats (in words)” value ([9]; 4 hours) was “markedly reduced the blood glucose level” and the “Effect on the liver glycogen level” value [10] was “significantly reduced the liver glycogen level (p<0.001)”.
